Laboratory results taken from patent US20140066411A1, “PHARMACEUTICAL COMPOSITIONS FOR EXTENDED RELEASE OF AZO-BONDED 5-AMINOSALICYLIC ACID COMPOSITIONS” (Depomed, Inc., priority 2012, published 2014).

Assay: Dissolving of olsalazine in dissolution media
Format: physicochemical
Method: Formulation 4 tablets were also made using pharmaceutical grade olsalazine in a micronized form in order to test the effects of drug particle size on tablet manufacturing and the ensuing release profiles. In vitro release profiles were evaluated for Formulation 4 tablets made as described in Example 1 and for tablets made using the same formula and process except with micronized olsalazine.

With olsalazine the dissolving in media (pH 4.5 acetate buffer) was “did not completely dissolve” and the dissolving in media (pH 7.5 phosphate buffer) was “dissolves easily”.
